Experimental data reported in the supplement of paper PMC10307832.

Compound: N#CC1(c2ccc(NC(=O)c3cccnc3NCc3ccncc3)cc2)CCCC1 [Apatinib] + CC(=O)Nc1cccc(-n2c(=O)n(C3CC3)c(=O)c3c(Nc4ccc(I)cc4F)n(C)c(=O)c(C)c32)c1 [Trametinib] (partner 0.02 µM)
Experiment: relative viability (nuclei count vs DMSO), 5 days (fraction); higher = more cells survive
Details: first compound 8 µM
How it was run: (§1)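 Dosing by pin tool came one day after lung cancer cell lines were seeded in 1536-well plates, using either one drug or a fixed anchor-drug dose plus five library-drug doses (not always all listed) in √10 steps. After 5 days, nuclei were counted on 4× images. Relative viability is treated-well nuclei count divided by vehicle-well nuclei count, and values are medians of duplicate plates.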

Row | Cell Line | relative viability
1 | NCI-H2347 | 0.268
2 | NCI-H2405 | 0.44
3 | NCI-H3122 | 0.176

Compound: N#CC1(c2ccc(NC(=O)c3cccnc3NCc3ccncc3)cc2)CCCC1 [Apatinib] + C[C@]1(O)C[C@@H](c2nc(-c3ccc4ccc(-c5ccccc5)nc4c3)c3c(N)nccn32)C1 [Linsitinib] (partner 1 µM)
Experiment: as above
Details: first compound 0.08 µM
How it was run: as §1

Row | Cell Line | relative viability
4 | NCI-H322M | 1.13
5 | NCI-H358 | 0.868
6 | NCI-H441 | 0.596
7 | NCI-H520 | 1.12
8 | NCI-H596 | 1.23
9 | NCI-H647 | 1.32
10 | NCI-H650 | 0.787
11 | NCI-H661 | 0.526
12 | NCI-H727 | 0.33
13 | NCI-H838 | 1.14
14 | NCI-H1355 | 0.97
15 | NCI-H1395 | 1.19
16 | NCI-H1437 | 1.03
17 | NCI-H1651 | 1.13
18 | NCI-H1666 | 0.861
19 | NCI-H1734 | 0.969

Row | Cell Line | relative viability
20 | NCI-H1755 | 0.976
21 | NCI-H1792 | 0.719
22 | NCI-H1793 | 0.974
23 | NCI-H1915 | 1.15
24 | NCI-H1944 | 1.19
25 | NCI-H1975 | 0.988
26 | NCI-H1993 | 0.751
27 | NCI-H2009 | 1.26
28 | NCI-H2023 | 0.816
29 | NCI-H2085 | 0.879
30 | NCI-H2087 | 1.07
31 | NCI-H2126 | 0.733
32 | NCI-H2228 | 0.708
33 | NCI-H2347 | 1
34 | NCI-H2405 | 1.05
35 | NCI-H3122 | 0.996

Same assay, conditions: first compound 0.253 µM

Row | Cell Line | relative viability
36 | NCI-H322M | 0.878
37 | NCI-H358 | 0.777
38 | NCI-H441 | 0.61
39 | NCI-H520 | 0.948
40 | NCI-H596 | 1.05
41 | NCI-H647 | 1.18
42 | NCI-H650 | 0.871
43 | NCI-H661 | 0.578
44 | NCI-H727 | 0.33
45 | NCI-H838 | 1.18
46 | NCI-H1355 | 0.863
47 | NCI-H1395 | 1.08
48 | NCI-H1437 | 1.06
49 | NCI-H1651 | 1.13
50 | NCI-H1666 | 0.99
51 | NCI-H1734 | 1.04

Row | Cell Line | relative viability
52 | NCI-H1755 | 0.97
53 | NCI-H1792 | 0.51
54 | NCI-H1793 | 0.931
55 | NCI-H1915 | 1.02
56 | NCI-H1944 | 1.22
57 | NCI-H1975 | 0.954
58 | NCI-H1993 | 0.648
59 | NCI-H2009 | 1.16
60 | NCI-H2023 | 0.886
61 | NCI-H2085 | 0.987
62 | NCI-H2087 | 0.925
63 | NCI-H2126 | 0.69
64 | NCI-H2228 | 0.501
65 | NCI-H2347 | 0.888
66 | NCI-H2405 | 1.12
67 | NCI-H3122 | 1.03

Same assay, conditions: first compound 0.8 µM

Row | Cell Line | relative viability
68 | NCI-H322M | 0.978
69 | NCI-H358 | 0.731
70 | NCI-H441 | 0.628
71 | NCI-H520 | 0.842
72 | NCI-H596 | 1.02
73 | NCI-H647 | 1.01
74 | NCI-H650 | 0.756
75 | NCI-H661 | 0.648
76 | NCI-H727 | 0.415
77 | NCI-H838 | 0.962
78 | NCI-H1355 | 0.802
79 | NCI-H1395 | 1.16
80 | NCI-H1437 | 0.879
81 | NCI-H1651 | 0.895
82 | NCI-H1666 | 0.92
83 | NCI-H1734 | 0.897

Row | Cell Line | relative viability
84 | NCI-H1755 | 0.964
85 | NCI-H1792 | 0.502
86 | NCI-H1793 | 0.716
87 | NCI-H1915 | 1.08
88 | NCI-H1944 | 1.06
89 | NCI-H1975 | 0.931
90 | NCI-H1993 | 0.742
91 | NCI-H2009 | 1.17
92 | NCI-H2023 | 0.615
93 | NCI-H2085 | 0.949
94 | NCI-H2087 | 0.907
95 | NCI-H2126 | 0.675
96 | NCI-H2228 | 0.521
97 | NCI-H2347 | 1.01
98 | NCI-H2405 | 1.05
99 | NCI-H3122 | 0.983

Same assay, conditions: first compound 2.53 µM

Row | Cell Line | relative viability
100 | NCI-H322M | 0.974
101 | NCI-H358 | 0.627
102 | NCI-H441 | 0.422
103 | NCI-H520 | 0.876
104 | NCI-H596 | 0.994
105 | NCI-H647 | 1.04
106 | NCI-H650 | 0.734
107 | NCI-H661 | 0.596
108 | NCI-H727 | 0.348
109 | NCI-H838 | 0.985
110 | NCI-H1355 | 0.685
111 | NCI-H1395 | 1.07
112 | NCI-H1437 | 0.653
113 | NCI-H1651 | 0.91
114 | NCI-H1666 | 0.917
115 | NCI-H1734 | 0.738

Row | Cell Line | relative viability
116 | NCI-H1755 | 0.977
117 | NCI-H1792 | 0.491
118 | NCI-H1793 | 0.599
119 | NCI-H1915 | 1.06
120 | NCI-H1944 | 1.25
121 | NCI-H1975 | 0.854
122 | NCI-H1993 | 0.715
123 | NCI-H2009 | 1.08
124 | NCI-H2023 | 0.683
125 | NCI-H2085 | 0.745
126 | NCI-H2087 | 0.924
127 | NCI-H2126 | 0.631
128 | NCI-H2228 | 0.629
129 | NCI-H2347 | 0.932
130 | NCI-H2405 | 0.95
131 | NCI-H3122 | 1.05

Same assay, conditions: first compound 8 µM

Row | Cell Line | relative viability
132 | NCI-H322M | 0.842
133 | NCI-H358 | 0.703
134 | NCI-H441 | 0.303
135 | NCI-H520 | 0.878
136 | NCI-H596 | 0.795
137 | NCI-H647 | 1.02
138 | NCI-H650 | 0.663
139 | NCI-H661 | 0.52
140 | NCI-H727 | 0.36
141 | NCI-H838 | 1.04
142 | NCI-H1355 | 0.666
143 | NCI-H1395 | 0.847
144 | NCI-H1437 | 0.475
145 | NCI-H1651 | 0.784
146 | NCI-H1666 | 0.724
147 | NCI-H1734 | 0.809
148 | NCI-H1755 | 0.709
149 | NCI-H1792 | 0.641
150 | NCI-H1793 | 0.685
151 | NCI-H1915 | 0.921
152 | NCI-H1944 | 1.26
153 | NCI-H1975 | 0.888
154 | NCI-H1993 | 0.775
155 | NCI-H2009 | 0.799
156 | NCI-H2023 | 0.607
157 | NCI-H2085 | 0.815
158 | NCI-H2087 | 0.716
